Columns and labels:
Format in all cases: physicochemical
[1] = HPLC potency of the isolated amorphous material, before and after drying
Experimental: For High Pressure Liquid Chromatography (HPLC), the sample isolated by evaporating methanol was analyzed by HPLC for potency. […] By careful drying at lower temperatures, the potency loss could be alleviated.
For the HPLC analysis, the sample isolated by evaporating methanol was analyzed by HPLC for potency. […] When the sample was re-analyzed after drying in the TGA at 25° C. or 70° C., the potency remained at 99 wt %. Therefore, the presence of Eudragit EPO improved the stability of the amorphous phase.

[2] = Physical stability of the amorphous material isolated by evaporating a methanolic solution
From the text: Amorphous Cefdinir was isolated by evaporating a methanolic solution.
Stable amorphous Cefdinir with Eudragit EPO was made and isolated by evaporating a methanolic solution.
Amorphous cefdinir with PVP was made and isolated by evaporating a methanolic solution.

[3] = Thermogravimetric analysis (TGA), onset of degradation on heating; conditions: heated at 10° C./min from 25° C.
Experimental: Thermogravimetric analysis (TGA) was performed in TA Instruments TG2950 (TA Instruments, New Castle, Del.). The samples were scanned at 10° C./minute with a dry nitrogen purge at 60 mL/minute.
For TGA analysis, the sample was heated at 10° C./min from 25° C. to 150° C. The air dried amorphous material contained about 5 wt % residual solvent. Since the TGA data also indicated degradation begins at 90° C., the residual solvent can be removed by holding the sample in the TGA for 1 hour at 25° C. (FIG. 5). At the end of the hour, the weight reached a constant value and the sample had lost 5% of its weight.
For the TGA analysis, the sample was heated at 10° C./min from 25° C. to 150° C. The air dried amorphous material contained some (˜10 wt %) residual methanol (FIG. 10). […] (FIG. 11). At the end of the hour, the weight reached a constant value and the sample had lost 10% of its weight.
For the TGA analysis, the sample was heated at 10° C./min from 25° C. to 200° C. The air dried amorphous material contained some (˜7 wt %) residual methanol. […] (FIG. 16). At the end of the hour, the weight reached a constant value and the sample had lost 7% of its weight.

potency by HPLC after drying ([1]; reanalyzed after drying in the TGA at 25° C. or 70° C.): 93%
potency by HPLC ([1]; sample isolated by evaporating methanol, after accounting for residual solvent): 98%
physical stability [2]: physically stable
temperature at which degradation begins (TGA) [3]: 90 °C
SMILES: C=CC1=C(C(=O)O)N2C(=O)C(NC(=O)C(=NO)c3csc(N)n3)[C@H]2SC1 (single isomer, unassigned) [Amorphous Cefdinir, 7-[2-(2-aminothiazol-4-yl)-2-hydroxyiminoacetamide]-3-vinyl-3-cephem-4-carboxylic acid (syn isomer)]
